Results: the NIST ThermoML archive (doi:10.1016/j.fluid.2010.10.018)
Numbers after ± are expanded uncertainties.

Details: 101.33 kPa, Liquid
[1] = 278 K, Concentric cylinders viscometry
[2] = 283 K, Concentric cylinders viscometry
[3] = 288 K, Concentric cylinders viscometry
[4] = 293 K, Concentric cylinders viscometry
[5] = 293 K, Falling or rolling sphere viscometry
[6] = 298 K, Concentric cylinders viscometry
[7] = 303 K, Concentric cylinders viscometry
[8] = 308 K, Concentric cylinders viscometry
[9] = 313 K, Concentric cylinders viscometry
[10] = 313 K, Falling or rolling sphere viscometry
[11] = 318 K, Concentric cylinders viscometry
[12] = 323 K, Concentric cylinders viscometry
[13] = 328 K, Concentric cylinders viscometry
[14] = 333 K, Concentric cylinders viscometry
[15] = 333 K, Falling or rolling sphere viscometry
[16] = 338 K, Concentric cylinders viscometry
[17] = 343 K, Concentric cylinders viscometry
[18] = 348 K, Concentric cylinders viscometry
[19] = 353 K, Concentric cylinders viscometry
[20] = 353 K, Falling or rolling sphere viscometry
[21] = 358 K, Concentric cylinders viscometry
[22] = 373 K, Falling or rolling sphere viscometry
[23] = 363 K, Concentric cylinders viscometry
[24] = 283 K, Falling or rolling sphere viscometry
[25] = 393 K, Falling or rolling sphere viscometry

Row | SMILES | viscosity [1] [mPa·s] | viscosity [2] [mPa·s] | viscosity [3] [mPa·s] | viscosity [4] [mPa·s] | viscosity [5] [mPa·s] | viscosity [6] [mPa·s] | viscosity [7] [mPa·s] | viscosity [8] [mPa·s] | viscosity [9] [mPa·s] | viscosity [10] [mPa·s] | viscosity [11] [mPa·s] | viscosity [12] [mPa·s] | viscosity [13] [mPa·s] | viscosity [14] [mPa·s] | viscosity [15] [mPa·s] | viscosity [16] [mPa·s] | viscosity [17] [mPa·s] | viscosity [18] [mPa·s] | viscosity [19] [mPa·s] | viscosity [21] [mPa·s] | further results
1 | CCCn1cc[n+](C)c1.O=S(=O)([N-]S(=O)(=O)C(F)(F)F)C(F)(F)F | 122.17 ± 6.4 | 92.6 ± 4.8 | 71.78 ± 3.7 | 56.78 ± 2.9 | 56.4 ± 2.9 | 45.75 ± 2.3 | 37.43 ± 1.9 | 31.07 ± 1.6 | 26.13 ± 1.3 | 26.17 ± 1.3 | 22.23 ± 1.1 | 19.11 ± 0.98 | 16.58 ± 0.85 | 14.5 ± 0.74 | 14.82 ± 0.76 | 12.79 ± 0.65 | 11.35 ± 0.58 | 10.14 ± 0.52 | 9.118 ± 0.47 | 8.24 ± 0.42 | viscosity [20]: 9.251 ± 0.48 mPa·s; viscosity [22]: 6.32 ± 0.33 mPa·s
2 | CCCCCCCCCCCCn1cc[n+](C)c1.O=S(=O)([N-]S(=O)(=O)C(F)(F)F)C(F)(F)F | – | 384.51 ± 22 | 277.46 ± 15 | 205 ± 11 | – | 154.33 ± 8.1 | 118.68 ± 6.1 | 93.71 ± 4.8 | 74.49 ± 3.8 | – | 60.08 ± 3 | 49.11 ± 2.5 | 40.64 ± 2 | 34.01 ± 1.7 | – | 28.76 ± 1.4 | 24.55 ± 1.2 | 21.14 ± 1.1 | 18.35 ± 0.92 | 16.05 ± 0.81 | viscosity [23]: 14.12 ± 0.71 mPa·s
3 | CCCCCCCCC[n+]1ccn(C)c1.O=S(=O)([N-]S(=O)(=O)C(F)(F)F)C(F)(F)F | – | – | – | – | – | – | – | – | – | – | – | – | – | – | – | – | – | – | – | – | viscosity (278 K, Capillary tube (Ostwald / Ubbelohde) method): 348.2 ± 20 mPa·s; viscosity (283 K, Capillary tube (Ostwald / Ubbelohde) method): 249.7 ± 14 mPa·s; viscosity (288 K, Capillary tube (Ostwald / Ubbelohde) method): 183.88 ± 10 mPa·s; viscosity (293 K, Capillary tube (Ostwald / Ubbelohde) method): 138.55 ± 7.3 mPa·s; viscosity (298 K, Capillary tube (Ostwald / Ubbelohde) method): 106.41 ± 5.5 mPa·s; viscosity (303 K, Capillary tube (Ostwald / Ubbelohde) method): 83.35 ± 4.2 mPa·s; viscosity (308 K, Capillary tube (Ostwald / Ubbelohde) method): 66.2 ± 3.3 mPa·s; viscosity (313 K, Capillary tube (Ostwald / Ubbelohde) method): 53.43 ± 2.7 mPa·s; viscosity (318 K, Capillary tube (Ostwald / Ubbelohde) method): 43.76 ± 2.2 mPa·s; viscosity (323 K, Capillary tube (Ostwald / Ubbelohde) method): 36.28 ± 1.8 mPa·s; viscosity (328 K, Capillary tube (Ostwald / Ubbelohde) method): 30.43 ± 1.5 mPa·s; viscosity (333 K, Capillary tube (Ostwald / Ubbelohde) method): 25.77 ± 1.3 mPa·s; viscosity (338 K, Capillary tube (Ostwald / Ubbelohde) method): 22.12 ± 1.1 mPa·s; viscosity (343 K, Capillary tube (Ostwald / Ubbelohde) method): 19.09 ± 0.96 mPa·s; viscosity (348 K, Capillary tube (Ostwald / Ubbelohde) method): 16.61 ± 0.84 mPa·s; viscosity (353 K, Capillary tube (Ostwald / Ubbelohde) method): 14.53 ± 0.73 mPa·s; viscosity (358 K, Capillary tube (Ostwald / Ubbelohde) method): 12.82 ± 0.65 mPa·s; viscosity (363 K, Capillary tube (Ostwald / Ubbelohde) method): 11.4 ± 0.57 mPa·s
4 | CCCCCCCCCCn1cc[n+](C)c1.O=S(=O)([N-]S(=O)(=O)C(F)(F)F)C(F)(F)F | 403.2 ± 23 | 287.62 ± 16 | 210.53 ± 11 | 157.52 ± 8.2 | 159.41 ± 9.8 | 120.18 ± 6.2 | 93.45 ± 4.8 | 73.92 ± 3.7 | 59.37 ± 3 | 60.51 ± 3.1 | 48.36 ± 2.4 | 39.91 ± 2 | 33.32 ± 1.7 | 28.12 ± 1.4 | 29.3 ± 1.5 | 23.97 ± 1.2 | 20.62 ± 1 | 17.88 ± 0.9 | 15.63 ± 0.79 | 13.75 ± 0.69 | viscosity [24]: 292.44 ± 22 mPa·s; viscosity [20]: 16.14 ± 0.82 mPa·s; viscosity [22]: 10 ± 0.51 mPa·s; viscosity [25]: 6.8 ± 0.34 mPa·s
5 | CCn1cc[n+](C)c1.O=S(=O)([N-]S(=O)(=O)C(F)(F)F)C(F)(F)F | 76.05 ± 3.9 | 60.15 ± 3.1 | 48.47 ± 2.5 | 39.71 ± 2 | 39.54 ± 2 | 33 ± 1.7 | 27.78 ± 1.4 | 23.66 ± 1.2 | 20.37 ± 1 | 20.49 ± 1.1 | 17.69 ± 0.9 | 15.5 ± 0.79 | 13.68 ± 0.7 | 12.16 ± 0.62 | 12.42 ± 0.64 | 10.87 ± 0.56 | 9.784 ± 0.5 | 8.848 ± 0.45 | 8.041 ± 0.41 | 7.34 ± 0.38 | viscosity [24]: 59.8 ± 3.1 mPa·s; viscosity [20]: 8.036 ± 0.41 mPa·s
6 | CCCCCC[n+]1ccn(C)c1.O=S(=O)([N-]S(=O)(=O)C(F)(F)F)C(F)(F)F | 212.3 ± 12 | 155.94 ± 8.2 | 117.29 ± 6.1 | 90.13 ± 4.6 | 87.84 ± 4.7 | 70.61 ± 3.6 | 56.3 ± 2.9 | 45.61 ± 2.3 | 37.47 ± 1.9 | 37.08 ± 1.9 | 31.19 ± 1.6 | 26.25 ± 1.3 | 22.35 ± 1.1 | 19.2 ± 0.98 | 19.29 ± 0.99 | 16.65 ± 0.85 | 14.55 ± 0.74 | 12.81 ± 0.65 | 11.35 ± 0.58 | 10.13 ± 0.52 | viscosity [20]: 11.48 ± 0.59 mPa·s; viscosity [22]: 7.46 ± 0.38 mPa·s; viscosity [25]: 5.28 ± 0.27 mPa·s
7 | CCCCCCCCn1cc[n+](C)c1.O=S(=O)([N-]S(=O)(=O)C(F)(F)F)C(F)(F)F | 297.03 ± 16 | 214.79 ± 11 | 159.11 ± 8.3 | 120.46 ± 6.2 | – | 93.05 ± 4.7 | 73.2 ± 3.7 | 58.53 ± 2.9 | 47.5 ± 2.4 | – | 39.09 ± 2 | 32.56 ± 1.6 | 27.43 ± 1.4 | 23.35 ± 1.2 | – | 20.06 ± 1 | 17.38 ± 0.88 | 15.18 ± 0.76 | 13.35 ± 0.67 | 11.83 ± 0.6 | –
8 | CCCCCn1cc[n+](C)c1.O=S(=O)([N-]S(=O)(=O)C(F)(F)F)C(F)(F)F | 164.73 ± 8.6 | 123.09 ± 6.3 | 93.65 ± 4.8 | 72.76 ± 3.7 | 78.44 ± 4.1 | 57.81 ± 2.9 | 46.38 ± 2.3 | 37.92 ± 1.9 | 31.43 ± 1.6 | 33.94 ± 1.7 | 26.38 ± 1.3 | 22.4 ± 1.1 | 19.2 ± 0.97 | 16.6 ± 0.84 | 18.52 ± 0.94 | 14.48 ± 0.73 | 12.73 ± 0.64 | 11.27 ± 0.57 | 10.04 ± 0.51 | 8.996 ± 0.45 | viscosity [24]: 133.33 ± 7.8 mPa·s; viscosity [20]: 10.89 ± 0.55 mPa·s; viscosity [22]: 7.19 ± 0.36 mPa·s; viscosity [25]: 5.15 ± 0.26 mPa·s
9 | CCCCCCCn1cc[n+](C)c1.O=S(=O)([N-]S(=O)(=O)C(F)(F)F)C(F)(F)F | 235 ± 13 | 182.82 ± 9.6 | 136.42 ± 7.1 | 104.17 ± 5.3 | – | 81.11 ± 4.1 | 64.28 ± 3.2 | 51.75 ± 2.6 | 42.28 ± 2.1 | – | 34.99 ± 1.8 | 29.3 ± 1.5 | 24.81 ± 1.2 | 21.2 ± 1.1 | – | 18.3 ± 0.92 | 15.92 ± 0.8 | 13.95 ± 0.7 | 12.31 ± 0.62 | 10.93 ± 0.55 | viscosity [23]: 9.753 ± 0.49 mPa·s
10 | CCCC[n+]1ccn(C)c1.O=S(=O)([N-]S(=O)(=O)C(F)(F)F)C(F)(F)F | 137.62 ± 7.1 | 104.14 ± 5.3 | 80.16 ± 4.1 | 62.99 ± 3.2 | 63.05 ± 3.2 | 50.62 ± 2.5 | 41.12 ± 2.1 | 33.89 ± 1.7 | 28.28 ± 1.4 | 28.63 ± 1.5 | 23.92 ± 1.2 | 20.45 ± 1 | 17.66 ± 0.89 | 15.38 ± 0.77 | 16 ± 0.81 | 13.5 ± 0.68 | 11.93 ± 0.6 | 10.61 ± 0.53 | 9.501 ± 0.48 | 8.553 ± 0.43 | viscosity [20]: 9.911 ± 0.5 mPa·s; viscosity [22]: 6.548 ± 0.33 mPa·s; viscosity [25]: 4.785 ± 0.24 mPa·s
11 | CCCCCCCCCCCCCCn1cc[n+](C)c1.O=S(=O)([N-]S(=O)(=O)C(F)(F)F)C(F)(F)F | – | – | – | – | – | – | – | – | 98.04 ± 5 | – | 78.06 ± 3.9 | 63.09 ± 3.2 | 51.68 ± 2.6 | 42.83 ± 2.2 | – | 35.87 ± 1.8 | 30.36 ± 1.5 | 25.93 ± 1.3 | 22.33 ± 1.1 | 19.38 ± 0.98 | viscosity [23]: 16.95 ± 0.85 mPa·s
